From patent US20160257697A1, “THIOPHENE-SUBSTITUTED TETRACYCLIC COMPOUNDS AND METHODS OFUSE THEREOF FOR THE TREATMENT OF VIRAL DISEASES” (priority 2013, published 2016)
Where two headings read alike, the source gives them in different places.

Experiments:
Test in all cases: microbe, parasite or virus in culture
Assay type in all cases: cell-based, Hepatitis C virus (HCV)
Conditions in all cases: Replicon Assay A
[1] = system: HCV replicon 1AY93H
Outline: (§1)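 Replicon cells were seeded at 2000 cells/well with test compound in 0.5% DMSO and 5% FBS, then harvested on day 3. Replicon RNA was measured by multiplex TaqMan real-time RT-PCR, using cyclophilin RNA as the endogenous control and quantified against standard curves of HCV replicon total RNA.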

[2] = system: HCV replicon 1A
Outline: as §1

[3] = system: HCV replicon 2B
Outline: as §1

[4] = read-out: 1A Y93H IC50, HCV replicon 1A Y93H
[5] = read-out: 2B IC50, HCV replicon 2B
[6] = read-out: 1A Y93H IC50, replicon 1AY93H
[7] = Hepatitis C virus, read-out: 1A Y93H IC50 (nM), replicon 1AY93H
[8] = Hepatitis C virus, read-out: 2B IC50 (nM), replicon 2B
[9] = Hepatitis C virus, read-out: 1A Y93H IC50, HCV replicon 1A Y93H
[10] = Hepatitis C virus, HCV replicon 1A
[11] = Hepatitis C virus, read-out: 2B IC50, HCV replicon 2B

## COC(=O)N[C@H](C(=O)N1CCC[C@H]1c1ncc(-c2ccc3c(c2)OC(c2cc4ccccc4s2)n2c-3cc3cc(-c4cnc([C@@H]5C[C@@H](F)CN5C(=O)[C@@H](NC(=O)OC)C5CCOCC5)[nH]4)ccc32)[nH]1)C(C)C (single isomer, unassigned) [Compound 628]
[1]; [4]
  IC50: 0.357 nM
[2]; HCV replicon 1A
  IC50: 0.00314 nM
[3]; [5]
  IC50: 0.922 nM

## COC(=O)NC(C(=O)N1CCC[C@H]1c1ncc(-c2ccc3c(c2)cc2n3C(c3ccc(C4CC4)s3)Oc3cc(-c4cnc([C@@H]5CCCN5C(=O)[C@@H](NC(=O)OC)C(C)C)[nH]4)cc(F)c3-2)[nH]1)C1CN(C(=O)OC)C1 (single isomer, unassigned) [Compound 227]
[1]; [6]
  IC50: 0.15 nM
[2]; replicon 1A
  IC50: 0.0019 nM
[3]; read-out: 2B IC50, replicon 2B
  IC50: 0.17 nM

## COC(=O)N[C@H](C(=O)N1CCC[C@H]1c1ncc(-c2cc(F)c3c(c2)OC(c2ccc(C4CC4)s2)n2c-3cc3cc(-c4cnc([C@@H]5CCCN5C(=O)[C@@H](NC(=O)OC)C5CCOCC5)[nH]4)ccc32)[nH]1)C(C)C (single isomer, unassigned) [Compound 126]
[1]; [7]
  IC50: 0.27 nM
[2]; Hepatitis C virus, replicon 1A
  IC50: 0.0019 nM
[3]; [8]
  IC50: 0.21 nM

## CCc1ccc(C2Oc3cc(-c4cnc([C@@H]5CCCN5C(=O)[C@@H](NC(=O)OC)C(C)C)[nH]4)ccc3-c3c(F)c4cc(-c5cnc([C@@H]6CCCN6C(=O)[C@@H](NC(=O)OC)C(C)C)[nH]5)ccc4n32)s1 (single isomer, unassigned) [Compound 603]
[1]; [4]
  IC50: 0.183 nM
[2]; HCV replicon 1A
  IC50: 0.0032 nM
[3]; [5]
  IC50: 0.496 nM

## COC(=O)NC(C(=O)N1CCC[C@H]1c1ncc(-c2ccc3c(c2)cc2n3C(c3ccc(C4CC4)s3)Oc3cc(-c4cnc([C@@H]5CCCN5C(=O)[C@@H](NC(=O)OC)C(C)C)[nH]4)cc(F)c3-2)[nH]1)C1C2COCC21 (single isomer, unassigned) [Compound 338]
[1]; [6]
  IC50: 0.357 nM
[2]; Hepatitis C virus, replicon 1A
  IC50: 0.0024 nM
[3]; read-out: 2B IC50, replicon 2B
  IC50: 1.52 nM

## COC(=O)NC(C(=O)N1CCC[C@H]1c1ncc(-c2ccc3c(c2)cc2n3C(c3ccc(C4CC4)s3)Oc3cc(-c4cnc([C@@H]5CCCN5C(=O)[C@@H](NC(=O)OC)C(C)C)[nH]4)cc(F)c3-2)[nH]1)C1CCO[C@@H](C)C1 (single isomer, unassigned) [Compound 354]
[1]; [6]
  IC50: 0.38 nM
[2]; Hepatitis C virus, replicon 1A
  IC50: 0.002 nM
[3]; read-out: 2B IC50, replicon 2B
  IC50: 0.602 nM

## CCc1ccc(C2Oc3cc(-c4cnc([C@@H]5CCCN5C(=O)C(NC(=O)OC)C5C[C@@H](C)O[C@@H](C)C5)[nH]4)cc(F)c3-c3cc4cc(-c5cnc([C@@H]6CCCN6C(=O)[C@@H](NC(=O)OC)C(C)C)[nH]5)ccc4n32)s1 (single isomer, unassigned) [Compound 154]
[1]; [6]
  IC50: 0.36 nM
[2]; replicon 1A
  IC50: 0.0017 nM
[3]; read-out: 2B IC50, replicon 2B
  IC50: 0.55 nM

## COC(=O)N[C@H](C(=O)N1CCC[C@H]1c1ncc(-c2cc(F)c3c(c2)OC(c2ccc(CC(F)(F)F)s2)n2c-3cc3cc(-c4cnc([C@@H]5CCCN5C(=O)[C@@H](NC(=O)OC)C(C)C)[nH]4)ccc32)[nH]1)C(C)C (single isomer, unassigned) [Compound 124]
[1]; [7]
  IC50: 1.38 nM
[2]; Hepatitis C virus, replicon 1A
  IC50: 0.0018 nM
[3]; [8]
  IC50: 3.4 nM

## CCc1ccc(C2Oc3cc(-c4cnc([C@@H]5CCCN5C(=O)[C@@H](NC(=O)OC)C(C)C)[nH]4)cc(F)c3-c3cc4cc(-c5cnc([C@@H]6C[C@@H](F)CN6C(=O)C(NC(=O)OC)C6CCOC(C)(C)C6)[nH]5)ccc4n32)s1 (single isomer, unassigned) [Compound 254]
[1]; [6]
  IC50: 0.12 nM
[2]; replicon 1A
  IC50: 0.0011 nM
[3]; read-out: 2B IC50, replicon 2B
  IC50: 3.49 nM

## COC(=O)N[C@H](C(=O)N1CCC[C@H]1c1ncc(-c2cc(F)c3c(c2)OC(c2ccc(CC(C)C)s2)n2c-3cc3cc(-c4cnc([C@@H]5CCCN5C(=O)[C@@H](NC(=O)OC)C(C)C)[nH]4)ccc32)[nH]1)C(C)C (single isomer, unassigned) [Compound 522]
[1]; [4]
  IC50: 0.0776 nM
[2]; HCV replicon 1A
  IC50: 0.0239 nM
[3]; [5]
  IC50: 0.417 nM

## COC(=O)NC(C(=O)N1CCC[C@H]1c1ncc(-c2ccc3c(c2)cc2n3C(c3cc4c(s3)CCC4)Oc3cc(-c4cnc([C@@H]5CCCN5C(=O)[C@@H](NC(=O)OC)C(C)C)[nH]4)cc(F)c3-2)[nH]1)C1CCOC(C)(C)C1 (single isomer, unassigned) [Compound 405]
[1]; [7]
  IC50: 0.0133 nM
[2]; Hepatitis C virus, replicon 1A
  IC50: 0.0023 nM
[3]; [8]
  IC50: 0.0042 nM

## COC(=O)N[C@H](C(=O)N1CCC[C@H]1c1ncc(-c2cc(F)c3c(c2)OC(c2ccc(OC)s2)n2c-3cc3cc(-c4cnc([C@@H]5CCCN5C(=O)[C@@H](NC(=O)OC)C(C)C)[nH]4)ccc32)[nH]1)C(C)C (single isomer, unassigned) [Compound 19]
[1]; [6]
  IC50: 0.5 nM
[2]; Hepatitis C virus, replicon 1A
  IC50: 0.0016 nM
[3]; read-out: 2B IC50, replicon 2B
  IC50: 1.88 nM

## COC(=O)NC(C(=O)N1CCC[C@H]1c1ncc(-c2ccc3c(c2)cc2n3C(c3cc4ccccc4s3)Oc3cc(-c4cnc([C@@H]5CCCN5C(=O)[C@@H](NC(=O)OC)C(C)C)[nH]4)cc(F)c3-2)[nH]1)C1C[C@@H](C)O[C@@H](C)C1 (single isomer, unassigned) [Compound 642]
[1]; [4]
  IC50: 0.066 nM
[2]; HCV replicon 1A
  IC50: 0.0019 nM
[3]; [5]
  IC50: 0.199 nM

## COC(=O)N[C@H](C(=O)N1CCC[C@H]1c1ncc(-c2cc(F)c3c(c2)OC(c2scc4c2OCCO4)n2c-3cc3cc(-c4cnc([C@@H]5CCCN5C(=O)[C@@H](NC(=O)OC)C(C)C)[nH]4)ccc32)[nH]1)C(C)C (single isomer, unassigned) [Compound 524]
[1]; [4]
  IC50: 14.5 nM
[2]; HCV replicon 1A
  IC50: 0.00766 nM
[3]; [5]
  IC50: 4.64 nM

## COC(=O)N[C@H](C(=O)N1CCC[C@H]1c1ncc(-c2ccc3c(c2)cc2n3C(c3ccc(Cl)s3)Oc3cc(-c4cnc([C@@H]5CCCN5C(=O)[C@H](NC(=O)OC)C(C)C)[nH]4)cc(F)c3-2)[nH]1)C(C)C (mixture of isomers) [Compound 506]
[1]; [9]
  IC50: 0.397 nM
[2]; [10]
  IC50: 0.0171 nM
[3]; [11]
  IC50: 0.471 nM

## CCN(CC)[C@@H](C(=O)N1C[C@H](F)C[C@H]1c1nc(-c2ccc3c(c2)OC(c2ccc(Cl)s2)n2c-3cc3cc(-c4c[nH]c([C@@H]5C[C@@H](F)CN5C(=O)[C@@H](c5ccccc5)N(CC)CC)n4)ccc32)c[nH]1)c1ccccc1 (mixture of isomers) [Compound 732]
[1]; [9]
  IC50: 0.4 nM
[2]; [10]
  IC50: 0.16 nM
[3]; [11]
  IC50: 12.5 nM

## COCc1ccc(C2Oc3cc(-c4cnc([C@@H]5CCCN5C(=O)[C@@H](NC(=O)OC)C(C)C)[nH]4)cc(F)c3-c3cc4cc(-c5c[nH]c([C@@H]6CCCN6C(=O)[C@@H](NC(=O)OC)C(C)C)n5)ccc4n32)s1 (single isomer, unassigned) [Compound 511]
[1]; [4]
  IC50: 0.401 nM
[2]; [10]
  IC50: 0.00238 nM
[3]; [5]
  IC50: 1.83 nM

## CCN(CC)[C@@H](C(=O)N1CCC[C@H]1c1ncc(-c2ccc3c(c2)cc2n3C(c3cc4ccccc4s3)Oc3cc(-c4cnc([C@@H]5C[C@@H](F)CN5C(=O)[C@@H](c5ccccc5)N(CC)CC)[nH]4)ccc3-2)[nH]1)c1ccccc1 (mixture of isomers) [Compound 808]
[1]; [9]
  IC50: 1.2 nM
[2]; [10]
  IC50: 0.026 nM
[3]; [11]
  IC50: 0.32 nM

## COC(=O)NC(C(=O)N1CCC[C@H]1c1ncc(-c2ccc3c(c2)cc2n3C(c3ccc(C4CC4)s3)Oc3cc(-c4cnc([C@@H]5C[C@@H](F)CN5C(=O)[C@@H](NC(=O)OC)C(C)C)[nH]4)cc(F)c3-2)[nH]1)C(C)(C)F (single isomer, unassigned) [Compound 115]
[1]; [6]
  IC50: 0.05 nM
[2]; replicon 1A
  IC50: 0.0011 nM
[3]; read-out: 2B IC50, replicon 2B
  IC50: 9.84 nM

## COC(=O)N[C@H](C(=O)N1CCC[C@H]1c1ncc(-c2cc(F)c3c(c2)OC(c2ccc(C4CC4)s2)n2c-3cc3cc(-c4cnc([C@@H]5CCCN5C(=O)[C@@H](NC(=O)OC)C(C)C)[nH]4)ccc32)[nH]1)C(C)C (mixture of isomers) [Compound 510]
[1]; [9]
  IC50: 0.0979 nM
[2]; [10]
  IC50: 0.00793 nM
[3]; [11]
  IC50: 0.0488 nM

## COC(=O)N[C@H](C(=O)N1C[C@H](F)C[C@H]1c1ncc(-c2ccc3c(c2)OC(c2cc(C)c(C)s2)n2c-3cc3cc(-c4c[nH]c([C@@H]5C[C@@H](F)CN5C(=O)[C@@H](NC(=O)OC)C5CCOCC5)n4)ccc32)[nH]1)C(C)C (mixture of isomers) [Compound 725]
[1]; [9]
  IC50: 0.058 nM
[2]; [10]
  IC50: 0.035 nM
[3]; [11]
  IC50: 0.76 nM

## COC(=O)N[C@H](C(=O)N1CCC[C@H]1c1ncc(-c2cc(F)c3c(c2)OC(c2cc4c(s2)C(C)(C)CC4)n2c-3cc3cc(-c4cnc([C@@H]5CCCN5C(=O)[C@@H](NC(=O)OC)C(C)C)[nH]4)ccc32)[nH]1)C(C)C (single isomer, unassigned) [Compound 392]
[1]; [7]
  IC50: 0.0514 nM
[2]; replicon 1A
  IC50: 0.0038 nM
[3]; [8]
  IC50: 0.373 nM

## COC(=O)N[C@H](C(=O)N1CCC[C@H]1c1ncc(-c2cc(F)c3c(c2)OC(c2ccc(C4(N)CC4)s2)n2c-3cc3cc(-c4cnc([C@@H]5CCCN5C(=O)[C@@H](NC(=O)OC)C(C)C)[nH]4)ccc32)[nH]1)C(C)C (mixture of isomers) [Compound 57]
[1]; [7]
  IC50: 0.37 nM
[2]; Hepatitis C virus, replicon 1A
  IC50: 0.0114 nM
[3]; [8]
  IC50: 2.79 nM

## CCc1ccc(C2Oc3cc(-c4cnc([C@@H]5CCCN5C(=O)[C@@H](NC(=O)OC)C(C)C)[nH]4)cc(F)c3-c3cc4cc(-c5cnc([C@@H]6CCCN6C(=O)C(NC(=O)OC)C6C[C@@H](C)O[C@@H](C)C6)[nH]5)ccc4n32)s1 (single isomer, unassigned) [Compound 145]
[1]; [6]
  IC50: 5.22 nM
[2]; replicon 1A
  IC50: 0.0022 nM
[3]; read-out: 2B IC50, replicon 2B
  IC50: 1.62 nM

## COC(=O)N[C@H](C(=O)N1CCC[C@H]1c1ncc(-c2cc(F)c3c(c2)OC(c2cc(C)c(C)s2)n2c-3cc3cc(-c4cnc([C@@H]5C[C@H]6C[C@H]6N5C(=O)[C@@H](NC(=O)OC)C(C)C)[nH]4)ccc32)[nH]1)C(C)C (single isomer, unassigned) [Compound 508]
[1]; [4]
  IC50: 0.608 nM
[2]; [10]
  IC50: 0.0409 nM
[3]; [5]
  IC50: 7.09 nM
